The source of these data is patent US8252559B2, “Methods and systems for selective fluorination of organic molecules” (The California Institute of Technology, priority 2006, dated 2012).

This data set is described as follows: in vitro. Conditions: PAMPA; for Papp at 0.5 mg/mL: pig, pH 7.4. As to the method: Effective permeability values (Pe) are calculated by monitoring accumulation of the organic molecule in a cross-membrane compartment. […] M+/M− refers to the fraction of compound that crossed the BBB-mimic membrane as compared to system with no membrane after 16 hour incubation at room temperature. Values are means of three replicates.
Membrane permeability assay. The membrane permeability assays were carried out adapting a described procedure and using 96-well MultiScreen-IP plates from Millipore. Filter plates were rinsed with 70% EtOH and double-distilled water prior to use. BBB-mimic membranes were prepared by coating filter wells with 5 μL porcine brain lipids (PBL, Avanti Polar Lipids) in dodecane (20 mg/mL). Control wells (PBL-free) were primed in the same way but not coated with PBL. Working solutions contained 0.5 mg/mL fluorinated compound in PBS pH 7.4 (5% EtOH). Assembled plates contained 150 μL working solution in the PBL-coated (or PBL-free) well, 300 μL PBS (5% EtOH) in the acceptor well, and were incubated at room temperature and 100% humidity. The change in organic compound concentration in the donor and acceptor wells was monitored over time by HPLC. Membrane permeability values (Pe) were calculated. All measurements were performed in triplicates. The assay was validated by comparing the experimental Pe value for caffeine with that reported in the art.
Ibuprofen has recently shown promising activity against amyloidogenic diseases. Anti-amyloidogenic drugs with high brain permeability are intensively sought after. Compounds 15, 16 and 18 were tested in a membrane permeability assay that mimics the composition of the blood-brain barrier (BBB).

Regarding `COC(=O)C(C)c1ccc(C(F)C(C)C)cc1` (centres unmarked) [Compound 15, 2-[4-(1-Fluoro-2-methyl-propyl)-phenyl]-propionic acid methyl ester], the “Membrane permeability properties / BBB-crossing potential (in words)” value was “very good” and the Papp at 0.5 mg/mL was greater than 10 ×10⁻⁶ cm/s.

`Cn1c(=O)c2c(ncn2C)n(C)c1=O` [Caffeine, reference compound] came in with an apparent permeability (Papp) at 0.5 mg/mL of 1.24 ×10⁻⁶ cm/s.

Turning to `COC(=O)C(C)c1ccc(C(F)C(C)(C)F)cc1` (centres unmarked) [Compound 18, 2-[4-(1,2-Difluoro-2-methyl-propyl)-phenyl]-propionic acid methyl ester], the “Membrane permeability properties / BBB-crossing potential (in words)” value is listed as “excellent” and the Papp at 0.5 mg/mL is greater than 10 ×10⁻⁶ cm/s.

`COC(=O)C(C)c1ccc(CC(C)(C)F)cc1` (centres unmarked) [Compound 16, 2-[4-(2-Fluoro-2-methyl-propyl)-phenyl]-propionic acid methyl ester]: the “Membrane permeability properties / BBB-crossing potential (in words)” value is “very good” and the Papp at 0.5 mg/mL was greater than 10 ×10⁻⁶ cm/s.

Take `COC(=O)C(C)c1ccc(CC(C)C)cc1` (centres unmarked) [Compound 12, 2-(4-Isobutyl-phenyl)-propionic acid methyl ester, reference compound]: the “Membrane permeability properties / BBB-crossing potential (in words)” value is on record as “modest BBB-crossing potential”.

A word on the Papp: it is the rate of passage across a membrane or cell layer, normalised by area and donor concentration.
